Results reported in ChEMBL document CHEMBL3885881, “DrugMatrix”.

Organism: Rattus norvegicus
Format: toxicity, organism-based, Sprague-Dawley
Conditions: in vivo, sc, 24 h, route mini-PUMP - SUBCUTANEOUS, time 1 day, vehicle 100 % SALINE; for ABSOLUTE EOSINOPHIL / ABSOLUTE LYMPHOCYTE / ABSOLUTE MONOCYTE / ABSOLUTE SEGMENTED NEUTROPHIL / BASOPHIL / EOSINOPHIL / ERYTHROCYTE COUNT / HEMATOCRIT / HEMOGLOBIN / LEUKOCYTE COUNT / LYMPHOCYTE / MEAN CORPUSCULAR HEMOGLOBIN / MEAN CORPUSCULAR HEMOGLOBIN CONCENTRATION / MEAN CORPUSCULAR VOLUME / MONOCYTE / NEUTROPHIL / NUCLEATED RED BLOOD CELLS / PLATELET COUNT: tissue Blood; for ALANINE AMINOTRANSFERASE / ALBUMIN / ALKALINE PHOSPHATASE / ASPARTATE AMINOTRANSFERASE / BLOOD UREA NITROGEN / CARBON DIOXIDE / CHLORIDE / CHOLESTEROL / CREATININE / GLUCOSE / LACTATE DEHYDROGENASE / LIPASE / PHOSPHORUS / POTASSIUM / SODIUM / TOTAL BILIRUBIN / TOTAL PROTEIN / URIC ACID: tissue Plasma
[1] = 0 mg/kg, vehicle control, dose level Control
[2] = […], dose 0.065 mg/Kg, dose level High

Description: DrugMatrix - Regimen: Single

## C[C@]12CCC(=O)C=C1CC[C@@H]1[C@@H]2[C@@H](O)C[C@]2(C=O)[C@@H](C(=O)CO)CC[C@@H]12 [ALDOSTERONE]
[1]
  ABSOLUTE EOSINOPHIL: 26.17 CELLS/uL
  ABSOLUTE LYMPHOCYTE: 10985.83 CELLS/uL
  ABSOLUTE MONOCYTE: 234.5 CELLS/uL
  ABSOLUTE SEGMENTED NEUTROPHIL: 1753.5 CELLS/uL
  BASOPHIL: 0%
  EOSINOPHIL: 0.17%
  ERYTHROCYTE COUNT: 5.64 x10E6/uL
  HEMATOCRIT: 34.52%
  HEMOGLOBIN: 12.68 G/DL
  LEUKOCYTE COUNT: 13 x10E3/uL
  LYMPHOCYTE: 84.5%
  MEAN CORPUSCULAR HEMOGLOBIN: 22.5 pg
  MEAN CORPUSCULAR HEMOGLOBIN CONCENTRATION: 36.78 G/DL
  MEAN CORPUSCULAR VOLUME: 61.18 fL
  MONOCYTE: 1.83%
  NEUTROPHIL: 13.5%
  NUCLEATED RED BLOOD CELLS: 0.17 /100WBC
  PLATELET COUNT: 679.17 x10E3/uL
  ALANINE AMINOTRANSFERASE: 42.67 u/L
  ALBUMIN: 3.77 G/DL
  ALKALINE PHOSPHATASE: 291.17 u/L
  ASPARTATE AMINOTRANSFERASE: 74.5 u/L
  BLOOD UREA NITROGEN: 15.33 mg/dL
  CARBON DIOXIDE: 30 mmol/L
  CHLORIDE: 100.83 MEQ/L
  CHOLESTEROL: 65.33 mg/dL
  CREATININE: 0.15 mg/dL
  GLUCOSE: 179.83 mg/dL
  LACTATE DEHYDROGENASE: 162.67 u/L
  LIPASE: 8.5 u/L
  PHOSPHORUS: 12.2 mg/dL
  POTASSIUM: 5.73 MEQ/L
  SODIUM: 144.7 MEQ/L
  TOTAL BILIRUBIN: 0.15 mg/dL
  TOTAL PROTEIN: 5.87 G/DL
  URIC ACID: 1.93 mg/dL
[2]
  ABSOLUTE EOSINOPHIL: 35 CELLS/uL
  ABSOLUTE LYMPHOCYTE: 9989.33 CELLS/uL
  ABSOLUTE MONOCYTE: 255.33 CELLS/uL
  ABSOLUTE SEGMENTED NEUTROPHIL: 2453.67 CELLS/uL
  BASOPHIL: 0%
  EOSINOPHIL: 0.33%
  ERYTHROCYTE COUNT: 5.74 x10E6/uL
  HEMATOCRIT: 34.13%
  HEMOGLOBIN: 12.57 G/DL
  LEUKOCYTE COUNT: 12.73 x10E3/uL
  LYMPHOCYTE: 78.33%
  MEAN CORPUSCULAR HEMOGLOBIN: 21.87 pg
  MEAN CORPUSCULAR HEMOGLOBIN CONCENTRATION: 36.77 G/DL
  MEAN CORPUSCULAR VOLUME: 59.43 fL
  MONOCYTE: 2.33%
  NEUTROPHIL: 19%
  NUCLEATED RED BLOOD CELLS: 0.33 /100WBC
  PLATELET COUNT: 980 x10E3/uL
  ALANINE AMINOTRANSFERASE: 37.33 u/L
  ALBUMIN: 3.87 G/DL
  ALKALINE PHOSPHATASE: 321.67 u/L
  ASPARTATE AMINOTRANSFERASE: 76 u/L
  BLOOD UREA NITROGEN: 11.67 mg/dL
  CARBON DIOXIDE: 27.67 mmol/L
  CHLORIDE: 101.33 MEQ/L
  CHOLESTEROL: 65.33 mg/dL
  CREATININE: 0.14 mg/dL
  GLUCOSE: 206.67 mg/dL
  LACTATE DEHYDROGENASE: 145.67 u/L
  LIPASE: 9 u/L
  PHOSPHORUS: 13.27 mg/dL
  POTASSIUM: 5.08 MEQ/L
  SODIUM: 146.53 MEQ/L
  TOTAL BILIRUBIN: 0.17 mg/dL
  TOTAL PROTEIN: 5.9 G/DL
  URIC ACID: 2.27 mg/dL
